From patent publication US20250099420A1, “SMALL MOLECULE MODULATORS OF GPR139 COMPLEX” (University of Florida Research Foundation, Incorporated, priority 2022, published 2025)

Assays:
[1] = target: T1, GPR139 (Homo sapiens, UniProt Q6DWJ6); assay: [3H]JNJ-63533054 radioligand competition binding assay on membranes of HEK293T/17 cells; parameters: HA signal peptide (HASP) (N); expressed in transfected cells; host or cells: HEK293T/17 cells (membrane preparation); conditions: for inhibition at 10 µM: 10 μM of the indicated compound, (10 μM) JNJ-63533054 as printed in title; for Ki: Ki=IC50/(1+C/Kd), membranes of HEK293T/17 cells expressing human GPR139, read-out: Ki ± SEM
T1 sequence (Q6DWJ6 1-353): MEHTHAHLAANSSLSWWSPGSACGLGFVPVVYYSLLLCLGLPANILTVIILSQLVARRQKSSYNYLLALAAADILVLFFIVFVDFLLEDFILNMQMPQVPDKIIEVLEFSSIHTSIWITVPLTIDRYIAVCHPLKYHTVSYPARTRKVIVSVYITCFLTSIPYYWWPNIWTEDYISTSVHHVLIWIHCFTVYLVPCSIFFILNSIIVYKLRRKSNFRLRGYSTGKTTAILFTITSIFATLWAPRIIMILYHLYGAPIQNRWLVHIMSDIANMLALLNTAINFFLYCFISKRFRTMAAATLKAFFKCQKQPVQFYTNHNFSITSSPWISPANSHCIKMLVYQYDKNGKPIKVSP
From the text: Eighteen compounds were selected for additional study. The compounds were re-synthesized and tested in radioligand binding competition assays for their ability to displace [^3H]-labeled reference agonist JNJ-63533054 on GPR139. The GPR139 construct used (pCDNA3.1-HASP-HA-GPR139) contained an N-terminal HA signal peptide (HASP), followed by an HA tag and human GPR139 (NM_001002911.4). HEK293T/17 cells were maintained in Dulbecco's modified Eagle's medium with 10% (v/v) fetal bovine serum, nonessential amino acids, and 1 mM sodium pyruvate.
Competition binding assay: Radioligand binding assay used human GPR139 expressed in HEK293T/17 cells. HEK293T/17 cells were transfected pCDNA3.1-HASP-HA-GPR139. 48 h after, cells were detached from plates by pipetting with PBS, centrifuged at 500×g for 5 min, and then the fluid was aspirated away. The cell pellets were frozen with liquid nitrogen and stored at −80° C. Pellets were homogenized in TE buffer (50 mM Tris-HCl, pH 7.4, 5 mM EDTA) and centrifuged at 1000×g at 4° C. for 5 min. Supernatant was collected and recentrifuged at 30,000×g at 4° C. for 30 min. The pellet was rehomogenized in TE buffer and incubated for 60 minutes at room temperature with eight concentrations of [^3H]JNJ-63533054 (specific activity 24.7 Ci/mmol) ranging from 0.024 nM to 400 nM. The binding reaction was terminated by filtration through GF/C filter (Waterman) followed by washes with cold TE buffer. Filters were dried in a hood overnight followed by the addition of scintillation fluid. Bound radioactivity was counted on a Hidex 600 liquid scintillation counter. […] Nonspecific binding was determined with 10 μM JNJ-63533054. The Kd values of the radioligands and IC50 of the antagonist were calculated by Graphpad Prism. Ki values were calculated as Ki=IC50/(1+C/Kd), where C is concentration of the radioligand.
Various concentrations of selected ligands were then added in the presence of 10 nM [^3H]-JNJ-63533054 and their ability to displace [^3H]labeling on cellular membranes was assessed. FIGS. 3B and 3C present representative data obtained in these experiments. […] The results of these experiments are presented in the Table 3 and confirm selective binding the compounds to GPR139 thereby validating their interaction with the intended target.

[2] = target: T1, GPR139; assay: GPR139 Antagonist titration assay (calcium detection, HEK-GPR139 cells, vs EC80 of S-JNJ-63533054); conditions: for GPR139 Antagonist Activity Averaged Max % Response (±St. Dev.): activity relative to known control; for GPR139 Antagonist Activity Lipophilic Efficiency (logD): based on logD; for GPR139 Antagonist Activity Lipophilic Efficiency (logP): based on logP; for GPR139 Antagonist Activity Hill Slope: fitted dose-response curve
[3] = target: T1, GPR139; assay: GPR139 Agonist titration / agonist counterscreen assay (calcium detection, HEK-GPR139 cells); assay type: cell-based; parameters: expressed in transfected cells; host or cells: HEK Aequorin cells, Maxcyte transient transfection; conditions: agonist counterscreen of the antagonists; for EC50: scientific notation, molarity, read-out: GRP139 Agonist activity EC50
Experimental: GPR activity was assessed using a calcium detection assay. […] Negative control samples were treated with DMSO. […] Intracellular calcium was measured using Calcium 5.

[4] = system: parental HEK cells; assay: HEK parental Antagonist Counterscreen Assay (non-transfected cells, acetylcholine control); assay type: cell-based; conditions: for EC50: Homo sapiens, HEK293, acetylcholine as control, scientific notation, molarity
From the text: C. […] The HEK parental counterscreen utilized the same cells but not transfected with the plasmid. The agonist and antagonist modes were run the same way as the primary screen but acetylcholine was used in place of GPR139 agonist as the control compound.
The HEK parental counterscreen utilized the same cells but not transfected with the plasmid. The antagonist modes assays utilized the cells being plated in the 1536 well plate overnight in growth media prior to dye loading in PDL coated plates and acetylcholine was used in place of GPR139 agonist as the control compound.
The HEK parental counterscreen utilized the same cells but not transfected with the plasmid. Acetylcholine was used in place of GPR139 agonist as the control compound. The cells were plated overnight, similar to the HEK antagonist counterscreen protocol.
The HEK parental counterscreens utilized the same cells but not transfected with the plasmid. Acetylcholine was used in place of GPR139 agonist as the control compound. The cells were plated overnight, similar to the HEK antagonist counterscreen protocol.
For each test compound, percent activation was plotted against compound concentration. A four parameter equation describing a sigmoidal dose-response curve was then fitted with adjustable baseline using Assay Explorer software (Symyx Technologies Inc.).

| SMILES | inhibition at 10 µM [1] [%] | Ki [1] [µM] | EC50 [2] [µM] | GPR139 Antagonist Activity Ligand Efficiency [2] | GPR139 Antagonist Activity Averaged Max % Response (±St. Dev.) [2] [%] | GPR139 Antagonist Activity Lipophilic Efficiency (logD) [2] | GPR139 Antagonist Activity Lipophilic Efficiency (logP) [2] | GPR139 Antagonist Activity Hill Slope [2] | GRP139 Agonist activity Averaged Max % Response (±St. Dev.) [3] | EC50 [3] [µM] | HEK antagonist activity Averaged Max % Response (±St. Dev.) [4] [%] | EC50 [4] [µM] |
| --- | --- | --- | --- | --- | --- | --- | --- | --- | --- | --- | --- | --- |
| COc1ccccc1CNC(=O)N1c2ccccc2Sc2ccccc21 [SR-01000506165] | 103 ± 1.95 | 1.1 ± 0.02 | 2.8 | 0.30 | 86.87 ± 2.82 | 1.14 | 1.14 | 0.52 | 7.66 ± 5.35% | > 14.6 | 5.72 ± 9.39 | > 14.6 |
| CCN1C(=O)c2cccc3c(S(=O)(=O)Nc4cccc(F)c4)ccc1c23 [SR-01000110577] | -117 ± 2.89 | 8.03 ± 0.18 | 6.9 | 0.28 | 81.68 ± 2.49 | 2.48 | 2.23 | 0.62 | 5.61 ± 4.33% | > 14.1 | 24.57 ± 3.75 | > 14.1 |
| CCCOC(=O)c1ccc(NC(=O)CSc2ccccc2)cc1 [SR-01000244770] | 56.3 ± 7.8 | 146 ± 0.003 | 6.9 | 0.31 | 82.77 ± 1.38 | 1.07 | 1.07 | 1.77 | 7.91 ± 4.93% | > 14.1 | 15.65 ± 7.33 | > 14.1 |
| O=C(NCCC1=CCCCC1)N1c2ccccc2Sc2ccccc21 [SR-01000452455-1 analog] | 107 ± 1.95 | 1.68 ± 0.04 |  |  |  |  |  |  |  |  |  |  |
| Cc1cc(C(F)(F)F)nc(SCC(=O)Nc2cccc(C(F)(F)F)c2)c1C#N [SR-01000507831] |  |  | > 13.9 | 0.24 | 49.37 ± 5.06 | −233.9E−3 | −233.9E−3 |  | 2.74 ± 8.83% | > 13.9 | 11.97 ± 1.54 | > 13.9 |
| CCCCCCOC(=S)SCC(=O)Nc1ccccc1 [SR-01000508699] |  |  | 2.7 | 0.39 | 85.61 ± 2.70 | 0.57 | 0.57 | 1.30 | 25.84 ± 3.55% | > 12 | 23.85 ± 9.06 | > 12 |
| CCn1cc(Cl)c(C(=O)OCC23CCC4c5ccccc5OC(C)(CC2C)C4C3C)n1 (stereo not shown) [SR-01000479575] |  |  |  | 0.24 | 58.09 ± 4.56 | 0.55 | 0.55 | 2.37 | −2.2E+0 ± 2.25 ^ % |  | 11.60 ± 7.12 | > 7.6 |
| CCCc1sc(N2CCN(C(=O)c3ccccc3)CC2)nc1-c1ccccc1 [SR-01000451510] |  |  | 8.8 | 0.25 | 57.55 ± 8.35 | −866.9E−3 | −866.9E−3 | 1.89 | −9.5E+0 ± 9.17 ^ % | > 11.7 | 16.06 ± 4.81 | > 11.7 |
| O=C(Nn1c(-c2cccc(Cl)c2)nc2ccccc2c1=O)c1cc(Br)ccc1Cl [SR-01000433654] |  |  | 7 | 0.25 | 82.91 ± 7.41 | −712.7E−3 | −712.7E−3 | 0.97 | 7.71 ± 3.46% | > 10.9 | 23.11 ± 4.71 | > 10.9 |
| O=C(NCCC1CCCCC1)N1c2ccccc2Sc2ccccc21 [SR-01000452455] |  |  | 3.6 | 0.32 | 87.35 ± 5.76 | 0.49 | 0.49 | 1.28 | 15.11 ± 5.37% | > 12.5 | 0.92 ± 5.75 | > 12.5 |

Further lines, with some results ahead:

| inhibition at 10 µM [1] [%] | Ki [1] [µM] | EC50 [2] [µM] | GPR139 Antagonist Activity Ligand Efficiency [2] | GPR139 Antagonist Activity Averaged Max % Response (±St. Dev.) [2] [%] | GPR139 Antagonist Activity Lipophilic Efficiency (logD) [2] | GPR139 Antagonist Activity Lipophilic Efficiency (logP) [2] | GPR139 Antagonist Activity Hill Slope [2] | GRP139 Agonist activity Averaged Max % Response (±St. Dev.) [3] | EC50 [3] [µM] | SMILES | HEK antagonist activity Averaged Max % Response (±St. Dev.) [4] [%] | EC50 [4] [µM] |
| --- | --- | --- | --- | --- | --- | --- | --- | --- | --- | --- | --- | --- |
| 51.9 ± 5.47 | 1.29 ± 0.03 |  |  |  |  |  |  |  |  | CN1CCN(S(=O)(=O)c2ccc(Sc3ccc(Cl)cc3)c([N+](=O)[O-])c2)CC1 [SR-07000003837-2 analog 2] |  |  |
| 65.5 ± 0.72 | 6.07 ± 0.14 |  |  |  |  |  |  |  |  | O=C(Nc1cccc(-c2nnco2)c1)C1c2ccccc2Oc2ccccc21 [SR-01000907648-1 analog] |  |  |
| 88.7 ± 21.1 | 9.45 ± 0.21 |  |  |  |  |  |  |  |  | CC(=O)Nc1ccc(Sc2ccc(S(=O)(=O)Nc3ccc(C)cc3C)cc2[N+](=O)[O-])cc1 [SR-07000003837-2 analog 1] |  |  |
|  |  | 1.5 | 0.25 | 88.60 ± 6.25 | 1.51 | 1.51 | 0.23 | 35.82 ± 4.87% | > 14.1 | Cc1c(-c2cccc(NC(=O)C3c4ccccc4Oc4ccccc43)c2)nc2ncccn12 [SR-01000907648] | 55.77 ± 9.26 | 7.6 |
|  |  | > 1.6 | 0.33 | 87.64 ± 8.11 | 0.62 | 0.62 |  | 13.37 ± 4.41% | > 14.1 | Cc1cccc(-n2ccnc2SCC(=O)Nc2cccc(C)c2C)c1 [SR-01000907209] | 18.39 ± 12.65 | > 14.1 |
|  |  | 3.1 | 0.28 | 81.29 ± 5.44 | −62.7E−3 | −63.1E−3 | 2.25 | 21.81 ± 2.59% | > 13 | Cc1cc(C)cc(-n2cnc3cc(C(=O)NCc4ccccc4Cl)ccc32)c1 [SR-01000579741] | 13.52 ± 10.95 | > 13 |
